Experimental data: ChEMBL document CHEMBL4311999, “3-Hydrazinoisatin-based benzenesulfonamides as novel carbonic anhydrase inhibitors endowed with anticancer activity: Synthesis, in vitro biological evaluation and in silico insights” (Eur J Med Chem, 2019)

Columns and labels:
Carbonic anhydrase 9 [1] = target: T1, Carbonic anhydrase 9 (Homo sapiens, UniProt Q16790); assay: Inhibition of recombinant human carbonic anhydrase 9 preincubated for 15 mins by phenol red dye based stopped flow CO2 hydration assay
SK-OV-3 = assay: Growth inhibition of human SKOV3 cells at 10 uM incubated for 48 hrs by sulforhodamine B assay relative to control; type: functional; details: SK-OV-3, 48 h, read-out: GI
786-0 = assay: Growth inhibition of human 786-0 cells at 10 uM incubated for 48 hrs by sulforhodamine B assay relative to control; type: functional; details: 786-0, 48 h, read-out: GI
Carbonic anhydrase 9 [2] = target: T1, Carbonic anhydrase 9; details: at 0.01 µM
Description: Inhibition of recombinant human carbonic anhydrase 9 at 0.01 uM preincubated for 15 mins by phenol red dye based stopped flow CO2 hydration assay (Rvb = 0%)

K562 = assay: Growth inhibition of human K562 cells at 10 uM incubated for 48 hrs by sulforhodamine B assay relative to control; type: functional; details: K562, 48 h, read-out: GI
DU-145 = assay: Growth inhibition of human DU145 cells at 10 uM incubated for 48 hrs by sulforhodamine B assay relative to control; type: functional; details: DU-145, 48 h, read-out: GI
IGROV-1 = assay: Growth inhibition of human IGROV1 cells at 10 uM incubated for 48 hrs by sulforhodamine B assay relative to control; type: functional; details: IGROV-1, 48 h, read-out: GI
MOLT-4 = assay: Growth inhibition of human MOLT4 cells at 10 uM incubated for 48 hrs by sulforhodamine B assay relative to control; type: functional; details: MOLT-4, 48 h, read-out: GI
NCI-H522 = assay: Growth inhibition of human NCI-H522 cells at 10 uM incubated for 48 hrs by sulforhodamine B assay relative to control; type: functional; details: NCI-H522, 48 h, read-out: GI
Carbonic anhydrase 9 [3] = target: T1, Carbonic anhydrase 9; details: at 1 µM
Description: Inhibition of recombinant human carbonic anhydrase 9 at 1 uM preincubated for 15 mins by phenol red dye based stopped flow CO2 hydration assay (Rvb = 0%)

OVCAR-4 = assay: Growth inhibition of human OVCAR4 cells at 10 uM incubated for 48 hrs by sulforhodamine B assay relative to control; type: functional; details: OVCAR-4, 48 h, read-out: GI
A498 = assay: Growth inhibition of human A498 cells at 10 uM incubated for 48 hrs by sulforhodamine B assay relative to control; type: functional; details: A498, 48 h, read-out: GI
KM12 = assay: Growth inhibition of human KM12 cells at 10 uM incubated for 48 hrs by sulforhodamine B assay relative to control; type: functional; details: KM12, 48 h, read-out: GI
Carbonic anhydrase 9 [4] = target: T1, Carbonic anhydrase 9; details: at 0.1 µM
Description: Inhibition of recombinant human carbonic anhydrase 9 at 0.1 uM preincubated for 15 mins by phenol red dye based stopped flow CO2 hydration assay (Rvb = 0%)

SW-620 = assay: Growth inhibition of human SW620 cells at 10 uM incubated for 48 hrs by sulforhodamine B assay relative to control; type: functional; details: SW-620, 48 h, read-out: GI
Carbonic anhydrase 9 [5] = target: T1, Carbonic anhydrase 9; details: at 1 nM
MCF7 = assay: Growth inhibition of human MCF7 cells at 10 uM incubated for 48 hrs by sulforhodamine B assay relative to control; type: functional; details: MCF7, 48 h, read-out: GI
A549 = assay: Growth inhibition of human A549/ATCC cells at 10 uM incubated for 48 hrs by sulforhodamine B assay relative to control; type: functional; details: A549, 48 h, read-out: GI
CAKI-1 = assay: Growth inhibition of human Caki1 cells at 10 uM incubated for 48 hrs by sulforhodamine B assay relative to control; type: functional; details: CAKI-1, 48 h, read-out: GI
RPMI-8226 = assay: Growth inhibition of human RPMI8226 cells at 10 uM incubated for 48 hrs by sulforhodamine B assay relative to control; type: functional; details: RPMI-8226, 48 h, read-out: GI
EKVX = assay: Growth inhibition of human EKVX cells at 10 uM incubated for 48 hrs by sulforhodamine B assay relative to control; type: functional; details: read-out: GI
UACC-62 = assay: Growth inhibition of human UACC62 cells at 10 uM incubated for 48 hrs by sulforhodamine B assay relative to control; type: functional; details: UACC-62, 48 h, read-out: GI
HCT-116 = assay: Growth inhibition of human HCT116 cells at 10 uM incubated for 48 hrs by sulforhodamine B assay relative to control; type: functional; details: HCT-116, 48 h, read-out: GI
ACHN = assay: Growth inhibition of human ACHN cells at 10 uM incubated for 48 hrs by sulforhodamine B assay relative to control; type: functional; details: read-out: GI
UO-31 = assay: Growth inhibition of human UO31 cells at 10 uM incubated for 48 hrs by sulforhodamine B assay relative to control; type: functional; details: UO-31, 48 h, read-out: GI
NCI-H226 = assay: Growth inhibition of human NCI-H226 cells at 10 uM incubated for 48 hrs by sulforhodamine B assay relative to control; type: functional; details: NCI-H226, 48 h, read-out: GI
TK-10 = assay: Growth inhibition of human TK10 cells at 10 uM incubated for 48 hrs by sulforhodamine B assay relative to control; type: functional; details: TK-10, 48 h, read-out: GI
Carbonic anhydrase 2 = Carbonic anhydrase 2 (Homo sapiens, UniProt P00918); assay: Inhibition of recombinant human carbonic anhydrase 2 preincubated for 15 mins by phenol red dye based stopped flow CO2 hydration assay
Carbonic anhydrase 1 = Carbonic anhydrase 1 (Homo sapiens, UniProt P00915); assay: Inhibition of recombinant human carbonic anhydrase 1 preincubated for 15 mins by phenol red dye based stopped flow CO2 hydration assay
Chain of Carbonic anhydrase 1 (P00915 whole entry): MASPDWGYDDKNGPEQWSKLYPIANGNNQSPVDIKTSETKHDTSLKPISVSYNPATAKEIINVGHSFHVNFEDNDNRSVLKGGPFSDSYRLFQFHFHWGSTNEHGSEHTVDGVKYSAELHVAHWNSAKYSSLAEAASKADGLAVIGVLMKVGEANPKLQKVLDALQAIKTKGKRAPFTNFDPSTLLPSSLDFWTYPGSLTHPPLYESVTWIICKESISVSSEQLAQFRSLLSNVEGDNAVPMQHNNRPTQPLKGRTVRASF

Carbonic anhydrase 12 = Carbonic anhydrase 12 (Homo sapiens, UniProt O43570); assay: Inhibition of recombinant human carbonic anhydrase 12 preincubated for 15 mins by phenol red dye based stopped flow CO2 hydration assay
Chain of Carbonic anhydrase 12 (O43570 whole entry): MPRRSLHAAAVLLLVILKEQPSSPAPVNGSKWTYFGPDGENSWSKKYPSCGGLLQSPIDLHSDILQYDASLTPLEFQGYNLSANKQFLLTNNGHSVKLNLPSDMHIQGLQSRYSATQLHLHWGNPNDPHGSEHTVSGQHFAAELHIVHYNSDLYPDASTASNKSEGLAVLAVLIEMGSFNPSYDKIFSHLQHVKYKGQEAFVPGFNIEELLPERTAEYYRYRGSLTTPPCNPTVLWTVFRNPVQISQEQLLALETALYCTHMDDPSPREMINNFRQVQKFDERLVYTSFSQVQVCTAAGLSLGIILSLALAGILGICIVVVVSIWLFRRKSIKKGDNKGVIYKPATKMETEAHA

CCCN1C(=O)/C(=N\Nc2ccc(S(N)(=O)=O)cc2)c2ccccc21 showed a Ki (Carbonic anhydrase 9 [1]) of 28.6 nM.
CCN1C(=O)/C(=N\Nc2ccc(S(N)(=O)=O)cc2)c2cc(Cl)ccc21 showed a Ki (Carbonic anhydrase 9 [1]) of 8.4 nM.
CCOC(=O)CN1C(=O)/C(=N\Nc2ccc(S(N)(=O)=O)cc2)c2cc(Cl)ccc21 showed an inhibition of growth at 10 µM (SK-OV-3) of 10%, a Ki (Carbonic anhydrase 9 [1]) of 38.8 nM and an inhibition of growth at 10 µM (786-0) of 10%. The inhibition (Carbonic anhydrase 9 [2]) was 42%, the inhibition of growth at 10 µM (K562) was 15% and the inhibition of growth at 10 µM (DU-145) was 10%. The inhibition of growth at 10 µM (IGROV-1) was 13%, the inhibition of growth at 10 µM (MOLT-4) was 21% and the inhibition of growth at 10 µM (NCI-H522) was 18%. The inhibition (Carbonic anhydrase 9 [3]) was 76%, the inhibition of growth at 10 µM (OVCAR-4) was 10% and the inhibition of growth at 10 µM (A498) was 10%. The inhibition of growth at 10 µM (KM12) was 12%, the inhibition (Carbonic anhydrase 9 [4]) was 66% and the inhibition of growth at 10 µM (SW-620) was 10%. For the same compound, the inhibition (Carbonic anhydrase 9 [5]) was 11%, the inhibition of growth at 10 µM (MCF7) was 21% and the inhibition of growth at 10 µM (A549) was 17%. It also gave an inhibition of growth at 10 µM (CAKI-1) of 24%, an inhibition of growth at 10 µM (RPMI-8226) of 11% and an inhibition of growth at 10 µM (EKVX) of 16%. It also gave an inhibition of growth at 10 µM (UACC-62) of 24%, an inhibition of growth at 10 µM (HCT-116) of 10% and an inhibition of growth at 10 µM (ACHN) of 30%. For the same compound, the inhibition of growth at 10 µM (UO-31) was 18%, the inhibition of growth at 10 µM (NCI-H226) was 18% and the inhibition of growth at 10 µM (TK-10) was 29%.
CN1C(=O)/C(=N\Nc2ccc(S(N)(=O)=O)cc2)c2ccccc21 was tested, and the Ki (Carbonic anhydrase 9 [1]) was 9.4 nM, the inhibition (Carbonic anhydrase 9 [2]) was 51% and the inhibition (Carbonic anhydrase 9 [3]) was 81%. It also gave an inhibition (Carbonic anhydrase 9 [4]) of 75% and an inhibition (Carbonic anhydrase 9 [5]) of 17%.
Compound NS(=O)(=O)c1ccc(N/N=C2\C(=O)Nc3ccccc32)cc1 has a Ki (Carbonic anhydrase 9 [1]) of 15.5 nM, a Ki (Carbonic anhydrase 2) of 63.3 nM and a Ki (Carbonic anhydrase 1) of 467 nM. For the same compound, the Ki (Carbonic anhydrase 12) was 30.1 nM.
For CN1C(=O)/C(=N\Nc2ccc(S(N)(=O)=O)cc2)c2cc(Br)ccc21, the Ki (Carbonic anhydrase 9 [1]) was 40.1 nM.
CCN1C(=O)/C(=N\Nc2ccc(S(N)(=O)=O)cc2)c2ccccc21 gave a Ki (Carbonic anhydrase 9 [1]) of 25.8 nM.
